Reference: paper PMC11540844, “Enhancing transcription–replication conflict targets ecDNA-positive cancers” (Nature, 2024)
“And” between values parts separate entries of the source, which are not always exact repeats. Identical values can stand only once. Like-named read-outs stand apart in the source and are kept apart here.

Assays:
SNU16 cells = assay: Cell viability (CellTiter-Glo); type: cell-based, human; conditions: for 3-day Cell Titer Glo relative signal (Source data Ext Fig 10b): Control SNU16, replicates; for IC50: Homo sapiens
Experimental: Cell viability assay was performed using CellTiter-Glo (Promega, catalgoue no. G8461) as previously described. Briefly, cells were seeded into a 384-well plate one day before adding inhibitors. Equal volumes of vehicles or drugs diluted at indicated concentration were added into each well the next day, and the cells were incubated for three days. On the third day, after equilibrating plate and CellTiter-Glo reagent at room temperature for 30 min, reagent was added into each well and incubated for 15 min at room temperature. Luminescence was measured using a Synergy 2 microplate reader. Four biological replicates were performed for each condition. Data analysis was performed with GraphPad Prism (v.9.1.0). […]

[1] = system: infigratinib-resistant SNU16 cells; assay: 3-day Cell Titer Glo in SNU16 cells after 8 weeks of infigratinib; type: cell-based, human; conditions: for 3-day Cell Titer Glo relative signal (Source data Ext Fig 10b): infi-intermed 8 wk SNU16, replicates
Source text: (§1) Nuclear staining is illustrated using DAPI (blue). […] Scale bar represents 10 µm. (b) Timeline of experimental overview. […] Lane 1 (control) is from a non-contiguous portion of the gel from lanes 2 and 3 (infigratinib treated samples).

SNU16 xenograft tumours = assay: SNU16 xenograft tumour model, tumour volume; type: in vivo, mice; conditions: for tumour volume, individual mice: Infigratinib 15 mg/kg PO QD
Experimental: Animal experiments were performed in accordance with protocols approved by the Charles River Accelerator and Development Lab (CRADL) Institutional Animal Care and Use Committee (protocol no. EB17-010-066). Mice were socially housed in individually ventilated cages on a 12/12 h light/dark cycle with temperatures between 65 and 75 °F and 30–50% humidity. The SNU16 gastric cancer cell line was purchased from ATCC (catalogue no. CRL5974) and maintained in Roswell Park Memorial Institute growth medium (Gibco, catalogue no. 22400-089) supplemented with 10% FBS (Omega Scientific, catalogue no. FB-02). To establish tumours, 1 × 10^6 SNU16 cells in 200 µl of a 1:1 mixture of PBS and Matrigel (Corning, catalogue no. 354234) were given by subcutaneous injection into the right flank of 9-week-old female severe combined immunodeficient beige mice (Envigo, strain code 186). Tumour measurements were taken two to three times per week and body weights were taken daily. Tumour volume measurements were obtained using digital calipers and tumour volumes (mm^3) were determined using the formula: tumour volume = (L × W2)/2, where L is the length/largest tumour diameter and W is the width/shortest tumour diameter, with all tumours collected before reaching 1,500 mm^3. Animals (eight mice per group, which historically allowed for significance determination between vehicle and infigratinib) were randomly assigned to unblinded treatment with vehicle, infigratinib (15 mg kg^−^1 oral (PO) once-daily (QD)), BBI-2779 (30 mg kg^−^1 PO every other day (Q2D)) or the combination of BBI-2779 and infigratinib once average tumour volume was 285 (±10)/mean (±s.e.m.) mm^3. One vehicle tumour was taken down on day 22; the mouse was sacrificed due to large tumour volume. Infigratinib was formulated in a 1:1 mixture of sodium acetate buffer, pH 4.6 and polyethylene glycol 300. BBI-2779 was formulated in 0.5% methylcellulose (Sigma-Aldrich, catalogue no. M0512) and 0.2% Tween 80 (AG Scientific, catalogue no. T-2835) in HyPure Molecular Biology Grade Water (HyClone, catalogue no. SH30538.02). […] Animals were sacrificed 6 h, 24 h or 36 h after the last dose, and tumours were collected for western blot or copy number analysis.

FGFR2 copy number = FGFR2 copy number by qPCR on xenograft tumour DNA; type: in vivo, mice; conditions: infigratinib 15 mg kg-1 PO QD
Experimental: For copy number analysis, tumours were cut into 10–20 mg pieces and flash-frozen in liquid nitrogen. DNA was extracted using the QIAcube DNA Extraction Kit (Qiagen, no. 51331). Briefly, a mixture of buffer ATL and proteinase K was added to the frozen tumour pieces, and they were set out to equilibrate to room temperature. Tumours were then vortexed for 30 s and placed into an incubator at 56 °C to digest overnight. The next morning, an additional 150 μl of buffer ATL was added and samples vortexed for an additional 30 s to reduce the viscosity of the samples before transfer to the S block. Qiagen protocol for the 96 QIAcube HT was followed for the remainder of the DNA isolation. Purified DNA was quantified for the presence of double-stranded DNA on the QIAxpert (Qiagen, catalogue no. 9002340). The DNA was diluted to 5 ng µl^−^1 (5× working stock) in RNase/DNase free water (Thermo Fisher Scientific, catalogue no. 10977015) and 2 µl was loaded into a 384-well plate. […]

[2] = system: FGFR2 copy number in SNU16 cells; assay: qPCR quantification of FGFR2 oncogene number in SNU16 cells; type: cell-based, human; conditions: 8.0 weeks of infigratinib
Source text: as §1

## CCN1CCN(c2ccc(Nc3cc(N(C)C(=O)Nc4c(Cl)c(OC)cc(OC)c4Cl)ncn3)cc2)CC1 [infigratinib]
SNU16 cells; 0.152416 nM infigratinib
  3-day Cell Titer Glo relative signal (Source data Ext Fig 10b): 1.0456 and 1.0233
SNU16 cells; 0.457247 nM infigratinib
  3-day Cell Titer Glo relative signal (Source data Ext Fig 10b): 0.9513 and 0.976
SNU16 cells; 1.37174 nM infigratinib
  3-day Cell Titer Glo relative signal (Source data Ext Fig 10b): 0.9221 and 0.9386
SNU16 cells; 4.11523 nM infigratinib
  3-day Cell Titer Glo relative signal (Source data Ext Fig 10b): 0.7516 and 0.791
SNU16 cells; 12.3457 nM infigratinib
  3-day Cell Titer Glo relative signal (Source data Ext Fig 10b): 0.4353 and 0.4209
SNU16 cells; 37.037 nM infigratinib
  3-day Cell Titer Glo relative signal (Source data Ext Fig 10b): 0.1753 and 0.1537
SNU16 cells; 111.111 nM infigratinib
  3-day Cell Titer Glo relative signal (Source data Ext Fig 10b): 0.1409 and 0.1325
SNU16 cells; 333.333 nM infigratinib
  3-day Cell Titer Glo relative signal (Source data Ext Fig 10b): 0.1569 and 0.1376
SNU16 cells; 1000 nM infigratinib
  3-day Cell Titer Glo relative signal (Source data Ext Fig 10b): 0.1554 and 0.1292
SNU16 cells; SNU-16, 72 h, control SNU16 cells, 3-day Cell Titer Glo, Extended Data Fig. 10b, read-out: "IC50" control
  IC50: 7.85 nM
SNU16 cells; SNU-16, SNU16 cells, Extended Data Fig. 10, read-out: IC50 (EC50 dose used for 8 weeks of treatment)
  IC50: 25 nM
[1]; Homo sapiens, SNU-16, SNU16 after 8 weeks of infigratinib, 3-day Cell Titer Glo
  IC50: 30.1 nM
[1]; 0.152416 nM infigratinib
  3-day Cell Titer Glo relative signal (Source data Ext Fig 10b): 0.9851 and 1.028
[1]; 0.457247 nM infigratinib
  3-day Cell Titer Glo relative signal (Source data Ext Fig 10b): 1.032 and 1.122
[1]; 1.37174 nM infigratinib
  3-day Cell Titer Glo relative signal (Source data Ext Fig 10b): 1.185 and 1.134
[1]; 4.11523 nM infigratinib
  3-day Cell Titer Glo relative signal (Source data Ext Fig 10b): 1.087 and 1.319
[1]; 12.3457 nM infigratinib
  3-day Cell Titer Glo relative signal (Source data Ext Fig 10b): 1.111 and 1.106
[1]; 37.037 nM infigratinib
  3-day Cell Titer Glo relative signal (Source data Ext Fig 10b): 0.3322 and 0.3782
[1]; 111.111 nM infigratinib
  3-day Cell Titer Glo relative signal (Source data Ext Fig 10b): 0.158 and 0.1671
[1]; 333.333 nM infigratinib
  3-day Cell Titer Glo relative signal (Source data Ext Fig 10b): 0.14 and 0.158
[1]; 1000 nM infigratinib
  3-day Cell Titer Glo relative signal (Source data Ext Fig 10b): 0.1637 and 0.1685
SNU16 xenograft tumours; day of study 1
  tumour volume, individual mice: 275.78 mm^3 and 318.63 mm^3 and 234.6 mm^3 and 333.76 mm^3 and 272.35 mm^3 and 399.19 mm^3 and 215.35 mm^3 and 244.48 mm^3
SNU16 xenograft tumours; day of study 5
  tumour volume, individual mice: 207 mm^3 and 207.01 mm^3 and 194.06 mm^3 and 114.59 mm^3 and 223.51 mm^3 and 272.2 mm^3 and 162.32 mm^3 and 141.42 mm^3
SNU16 xenograft tumours; day of study 8
  tumour volume, individual mice: 138.07 mm^3 and 126.44 mm^3 and 146.81 mm^3 and 70.82 mm^3 and 180.25 mm^3 and 231.85 mm^3 and 107.33 mm^3 and 100.66 mm^3
SNU16 xenograft tumours; day of study 11
  tumour volume, individual mice: 156.25 mm^3 and 176.04 mm^3 and 166.7 mm^3 and 123.46 mm^3 and 218.18 mm^3 and 282.27 mm^3 and 116.93 mm^3 and 111.73 mm^3
SNU16 xenograft tumours; day of study 13
  tumour volume, individual mice: 172.17 mm^3 and 176.87 mm^3 and 188.21 mm^3 and 133.63 mm^3 and 270.33 mm^3 and 330.51 mm^3 and 108.35 mm^3 and 124.21 mm^3
SNU16 xenograft tumours; day of study 15
  tumour volume, individual mice: 126.09 mm^3 and 205.17 mm^3 and 263.36 mm^3 and 166 mm^3 and 337.92 mm^3 and 367.94 mm^3 and 166.72 mm^3 and 154.6 mm^3
SNU16 xenograft tumours; day of study 18
  tumour volume, individual mice: 157.95 mm^3 and 204.33 mm^3 and 255.64 mm^3 and 193.27 mm^3 and 380.93 mm^3 and 448.61 mm^3 and 202.33 mm^3 and 176.11 mm^3
SNU16 xenograft tumours; day of study 20
  tumour volume, individual mice: 165.11 mm^3 and 203.59 mm^3 and 221.67 mm^3 and 192.93 mm^3 and 417.82 mm^3 and 479.35 mm^3 and 231.86 mm^3 and 168.05 mm^3
SNU16 xenograft tumours; day of study 22
  tumour volume, individual mice: 223.01 mm^3 and 251.01 mm^3 and 223.64 mm^3 and 246.07 mm^3 and 397.26 mm^3 and 479.73 mm^3 and 254.62 mm^3 and 184.76 mm^3
SNU16 xenograft tumours; day of study 25
  tumour volume, individual mice: 231.38 mm^3 and 244.62 mm^3 and 333.8 mm^3 and 257.4 mm^3 and 426.98 mm^3 and 499.94 mm^3 and 237.29 mm^3 and 196.21 mm^3
SNU16 xenograft tumours; day of study 27
  tumour volume, individual mice: 227.44 mm^3 and 236.39 mm^3 and 325 mm^3 and 271.28 mm^3 and 505.17 mm^3 and 681.55 mm^3 and 273.5 mm^3 and 238.76 mm^3
SNU16 xenograft tumours; infigratinib 15 mg kg^−1 PO QD, day 25, vs vehicle, P < 0.0005
  mean per cent tumour growth inhibition: 97%
FGFR2 copy number
  FGFR2 copy number by qPCR on tumour DNA, individual tumours: 356.837 and 338.53 and 324.931 and 257.5 and 276.141 and 331.223 and 308.687 and 333.495
[2]
  FGFR2 CN: 332.123
